Measurements taken from patent US9637473B2, “Acrylamide derivatives as antimalarial agents” (priority 2013, dated 2017).

System: P. Falciparum NF54
Experiment: Plasmodium falciparum in vitro assay ([3H]-hypoxanthine incorporation)
Type: cell-based
Conditions: Plasmodium falciparum, Erythrocyte, P. Falciparum NF54, erythrocytic stages in human red blood cells, 50% human serum
Summary of the method: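 This in vitro antimalarial assay used P. falciparum erythrocytic stages cultured in human erythrocytes and measured [3H]-hypoxanthine incorporation. Radioactivity on the dried filters, placed in plastic foil with 10 mL scintillation fluid, was counted in a Betaplate liquid scintillation counter. Sigmoidal inhibition curves built in Microsoft Excel gave the IC50.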

Compound	IC50
Cc1cc(Nc2ccc(CN(C(=O)/C=C/c3ccc(Cl)cc3)C(C)CN(C)C)cc2)ccn1 (centres unmarked) [Example 209, (E)-3-(4-Chloro-phenyl)-N-(2-dimethylamino-1-methyl-ethyl)-N-[4-(2-methyl-pyridin-4-ylamino)-benzyl]-acrylamide]	172 nM
Cc1cc(Nc2ccc(CN(C(=O)/C=C/c3ccc(Cl)cc3)C3CCN(C4CC4)CC3)cc2)ccn1 [Example 210, (E)-3-(4-Chloro-phenyl)-N-(1-cyclopropyl-piperidin-4-yl)-N-[4-(2-methyl-pyridin-4-ylamino)-benzyl]-acrylamide]	174 nM
